The values that follow come from patent US9072919B2, “Synergistic antioxidant cosmetic compositions containing at least one of baicalin and taxifolin, at least one of caffeine and nicotinamide, at least one of vitamin C and resveratrol and ferulic acid” (priority 2012, dated 2015).

Data set [1] is described as follows: Oxygen radical absorbance capacity assay (ORAC). In kind it is biochemical. Conditions: tested both individually and in solution. Here is the method: Azo-initiators are considered to produce the peroxyl radical by heating, which damages the fluorescent molecule, resulting in the loss of fluorescence. Antioxidants are considered to protect the fluorescent molecule from the oxidative degeneration. By quantifying the decay of fluorescence using a fluorometer, the degree of protection is determined comparing with a standard control antioxidant Trolox. […] Equipment that can automatically measure and calculate the capacity is commercially available, such as the VarioSkan flash microplate reader from Thermo Scientific. To test samples by using ORAC, compounds are dissolved into water-based NaH2PO4 buffer.

Another data set can be described thus: Solubility in water. In kind it is physicochemical.

Molecules are shown by their SMILES.

For `NC(=O)c1cccnc1` [nicotinamide], the “influence of hydrotrope on the capacity of antioxidant compounds” value in data set [1] was “no influence”.

As for `O=C(O)[C@H]1O[C@@H](Oc2cc3oc(-c4ccccc4)cc(=O)c3c(O)c2O)[C@H](O)[C@@H](O)[C@@H]1O` [baicalin], the solubility in water entry in “Solubility in water” was “very low”. `Cn1c(=O)c2c(ncn2C)n(C)c1=O` [caffeine]: the “influence of hydrotrope on the capacity of antioxidant compounds” value in data set [1] is listed as “no influence”.
